# Test results: US8859463B2, “Method for controlling noxious organisms” (Sumitomo Chemical Company, Limited, priority 2009, dated 2014)
# What was measured:
# Type in all cases: in vivo
# [1] = test system: Aulacorthum solani; assay: Insecticidal effect (protective value), soybean pot test, Example 3; conditions: day 7 after release
# Experimental: (§1) The evaluation of the insecticidal effect was performed by determining the life and death of the insects at the time of the investigation and calculating the protective value according to the following equation; Protective Value (%)=100×(1−T/C) wherein the symbols have the following meanings;
# (§2) C: The number of insects at the time of observation in an untreated section: and
# (§3) T: The number of insects at the time of observation in a treated section.
# (§4) Thereafter, the test pot was placed in a greenhouse.
# [2] = test system: Ipomoea lacunosa; assay: Herbicidal activity, corn pot test, Example 76; conditions: metalaxyl-M none, ten days after sowing
# Experimental: In a glass container measuring 60 mm in inner diameter and 20 mm in height, 15 mg of a metalaxyl-M emulsifiable concentrate (emulsifiable concentrate containing 33.3% metalaxyl-M, manufactured by Syngenta under the trade name of Apron XL) and 25 corn seeds were placed. After capping this glass container, the metalaxyl-M emulsifiable concentrate was adhered to the corn seeds by shaking the glass container by hand. In the same manner, 33 mg of the metalaxyl-M emulsifiable concentrate was adhered to the corn seeds.
# (§5) A plastic pot measuring 194 mm in inner diameter and 176 mm in height was filled with the soil. In this pot, 2 corn seeds were sown per 1 pot and 10 seeds of Ipomoea lacunosa were sown per 1 pot. On the day of sowing of the corn seeds, after sowing the corn seeds, a water diluted solution (24.5 mg of product/liter) of a flumioxazin granular wettable powder (granular wettable powder containing 51% flumioxazin, manufactured by Valent USA Corporation under the trade name of Valor SX), a water diluted solution (66.7 mg of product/liter) of a sulfentrazone granular wettable powder (granular wettable powder containing 75% sulfentrazone manufactured by FMC Corporation under the trade name of Cover), a water diluted solution (15 mg/liter) of saflufenacil and a water diluted solution (100 mg/liter) of oxyfluorfen were uniformly sprayed over a surface of the soil in each amount described in Tables 28 to 31, using a sprayer. The water diluted solutions of saflufenacil and oxyfluorfen were prepared by dissolving each predetermined amount of saflufenacil and oxyfluorfen in acetone containing 2% (w/v) Tween 20 and diluting each solution with water so as to adjust the concentration of acetone to 10% by volume.
# Ten days after sowing the seeds of corn and Ipomoea lacunosa, herbicidal activity was examined.
# [3] = test system: Ipomoea lacunosa; assay: Herbicidal activity, corn pot test, Example 59; conditions: pyraclostrobin none, twelve days after sowing
# Experimental: In a glass container measuring 60 mm in inner diameter and 20 mm in height, 8 mg of a pyraclostrobin emulsifiable concentrate (emulsifiable concentrate containing 23.8% pyraclostrobin, manufactured by BASF under the trade name of Comet) and 25 corn seeds were placed. After capping a glass container, the pyraclostrobin emulsifiable concentrate was adhered to the corn seeds by shaking the glass container by hand. In the same manner, 22 mg of the pyraclostrobin emulsifiable concentrate was adhered to the corn seeds.
# as §5, with “75% sulfentrazone,” for “75% sulfentrazone”, “Tables 22” for “Tables 28”, “to 25,” for “to 31,”
# Twelve days after sowing the seeds of corn and Ipomoea lacunose, herbicidal activity was examined.
# [4] = test system: Spodoptera litura; assay: Insecticidal effect (protective value), corn pot test, Example 5; conditions: day 3 after release
# Experimental: as §1, §2, §3
# (§6) In addition, the clothianidin suspension was attached to the corn seeds in a similar manner except that it was used in an amount of 217.5 μL.
# The aqueous diluted solution of saflufenacil was prepared by dissolving a given amount of saflufenacil in acetone containing 2% (w/v) of Tween 20, and diluting this solution with water to an acetone concentration of 10% (v/v).
# (§7) Thereafter, the test pot was placed in a greenhouse. On day 22 after corn sowing, 10 fourth-instar larvae of Spodoptera litura were released in the pot and the whole pot was then covered with a nylon cloth.
# (§8) On day 3 after release of Spodoptera litura, the insecticidal effect was examined.
# [5] = test system: Ipomoea hederacea; assay: Herbicidal activity, corn pot test, Example 16; conditions: azole seed treatment none, saflufenacil 30 g/ha, twelve days after sowing
# Experimental: In a glass container measuring 60 mm in inner diameter and 20 mm in height, 8 μl of a prothioconazole emulsifiable concentrate (emulsifiable concentrate containing 25% prothioconazole, manufactured by Bayer Crop Science Inc. under the trade name of Proline) and 20 corn seeds were placed. The prothioconazole emulsifiable concentrate was adhered to the corn seeds by shaking this plastic cup by hand. In the same manner, 8 μl of a difenoconazole emulsifiable concentrate (emulsifiable concentrate containing 25% difenoconazole, manufactured by Syngenta under the trade name of Score) was adhered to 20 corn seeds. In the same manner, 50 mg of a tebuconazole suspension (suspension containing 20% tebuconazole, manufactured by Hokko Chemical Industry under the trade name of ONLY ONE Flowable) was adhered to 20 corn seeds.
# A plastic pot measuring 194 mm in inner diameter and 176 mm in height was filled with the soil. In this pot, 3 corn seeds were sown per 1 pot and 10 seeds of Ipomoea hederacea were sown per 1 pot. […]
# [6] = test system: corn; assay: Phytotoxicity to corn, Example 7; conditions: day 11 after sowing
# Experimental: (§9) The plastic cup was shaken by the hand so as to attach the clothianidin suspension to the corn seeds.
# (§10) A soil was packed in a 1/5000a Wagner pot. The above corn seeds. were sown in the Wagner pot at a rate of one seed per pot, and the seeds of Ipomoea hederacea were sown in the pot at a rate of three seeds per pot. […] The aqueous diluted solution of saflufenacil was prepared by dissolving a given amount of saflufenacil in acetone containing 2% (w/v) of Tween 20, and diluting this solution with water to an acetone concentration of 10% (v/v).
# (§11) On day 11 after sowing of the seeds of corn and Ipomoea hederacea, the herbicidal effect and phytotoxicity were examined.
# [7] = test system: Ipomoea hederacea; assay: Herbicidal effect, corn Wagner pot test, Example 7; conditions: day 11 after sowing, scale 0 to 100
# Experimental: as §9, §10, §11
# [8] = test system: Aulacorthum solani; assay: Insecticidal effect (protective value), soybean pot test, Example 2; conditions: thiamethoxam 78.9 g/ha; flumioxazin none; day 6 after release
# Experimental: as §1, §2, §3, §4
# [9] = test system: soybean; assay: Phytotoxicity to soybean, Example 6; conditions: clothianidin 73 g/ha; flumioxazin none; day 11 after sowing
# Source text: (§12) A soil was packed in a 1/5000a Wagner pot. The above soybean seeds were sown in the Wagner pot at a rate of two seeds per pot, and the seeds of Ipomoea hederacea were sown in the pot at a rate of three seeds per pot.
# (§13) On day 11 after sowing of the seeds of soybean and Ipomoea hederacea, the herbicidal effect and phytotoxicity were examined.
# [10] = test system: Ipomoea hederacea; assay: Herbicidal effect, soybean Wagner pot test, Example 6; conditions: clothianidin 73 g/ha; flumioxazin none; day 11 after sowing; scale 0 to 100
# Source text: as §12, §13
# [11] = test system: Aulacorthum solani; assay: Insecticidal effect (protective value), soybean pot test, Example 1; conditions: clothianidin 44.7 g/ha; flumioxazin none; day 6 after release
# Experimental: as §1, §2, §3, §4
# [12] = test system: Spodoptera litura; assay: Insecticidal effect (protective value), corn pot test, Example 4; conditions: flumioxazin none, day 3 after release
# Experimental: as §1, §2, §3, §6, §7, §8
# [13] = clothianidin none, saflufenacil 32 g/ha
# [14] = clothianidin 340 g/ha, saflufenacil none
# [15] = clothianidin 605 g/ha, saflufenacil none
compound,measurement,setting,value
"Cc1nn(-c2cc(NS(C)(=O)=O)c(Cl)cc2Cl)c(=O)n1C(F)F [Sulfentrazone, sulfentrazone]",Protective Value,"[1]; clothianidin none, sulfentrazone 200 g/ha",0%
same,Herbicidal activity,[2]; sulfentrazone 100 g/ha,40
same,Herbicidal activity,[3]; sulfentrazone 100 g/ha,40
"CC(C)N(C)S(=O)(=O)NC(=O)c1cc(-n2c(=O)cc(C(F)(F)F)n(C)c2=O)c(F)cc1Cl [Saflufenacil, saflufenacil]",Protective Value,[4]; [13],0%
same,Protective Value,"[4]; clothianidin none, saflufenacil 125 g/ha",0%
same,Herbicidal activity on Ipomoea hederacea,[5],88
same,Phytotoxicity to Corn,[6]; [13],No harm
same,Herbicidal activity,[2]; saflufenacil 30 g/ha,45
same,Herbicidal activity,[3]; saflufenacil 30 g/ha,45
same,Evaluation of Effect on Weeds,[7]; [13],50
"CN1COCN(Cc2cnc(Cl)s2)/C1=N\[N+](=O)[O-] [Thiamethoxam, thiamethoxam]",Protective Value,[8],86.9%
"CN/C(=N\[N+](=O)[O-])NCc1cnc(Cl)s1 [Clothianidin, clothianidin]",Phytotoxicity to Soybean,[9],No harm
same,Protective Value,"[4]; clothianidin 272 g/ha, saflufenacil none",30%
same,Protective Value,"[4]; clothianidin 496 g/ha, saflufenacil none",40%
same,Phytotoxicity to Corn,[6]; [14],No harm
same,Phytotoxicity to Corn,[6]; [15],No harm
same,Protective Value,"[1]; clothianidin 55.3 g/ha, sulfentrazone none",55.2%
same,Evaluation of Effect on Weeds,[10],0
same,Protective Value,[11],59.1%
same,Evaluation of Effect on Weeds,[7]; [14],0
same,Evaluation of Effect on Weeds,[7]; [15],0
same,Protective Value,[12]; clothianidin 553 g/ha,30%
same,Protective Value,[12]; clothianidin 984 g/ha,65%
"CCOc1cc(Oc2ccc(C(F)(F)F)cc2Cl)ccc1[N+](=O)[O-] [Oxyfluorfen, oxyfluorfen]",Herbicidal activity,[2]; oxyfluorfen 200 g/ha,45
same,Herbicidal activity,[3]; oxyfluorfen 200 g/ha,45
